Test results published in patent US5817755A, “Synthetic peptide analogs of cross-linked N-telopeptides of type I collagen” (Washington Research Foundation, priority 1997, dated 1998).
Non-standard residues stand in square brackets, D forms with d. Residues, ends and D or L forms follow the SMILES beside them. pGlu = O=C1CC[C@@H](C(=O)O)N1; Nva = CCC[C@H](N)C(=O)O

Experiments:
[1] = tested on: mAb 1H11; assay: OSTEOMARK competitive immunoassay testing apparent affinity of synthetic peptides for mAb 1H11; assay type: binding; conditions: for Results: peptide binding to mAb 1H11, 1 μg synthetic peptide = X nmole BCE: nanomoles Bone Collagen Equivalents equivalent to 1 μg peptide, back fit into OSTEOMARK standard curve, values between 0.5 and 1 OD averaged; for binding to mAb 1H11 (in words): synthetic peptide, antibody inhibition assay
Text: Generally, a milligram per mL solution of the peptide was made in PBS. The absorbence at A280 was read and the concentration confirmed. Dilutions of the peptide were then made in a buffer such as OSTEOMARK (TM) calibrator diluent (OSTEOMARK Assay, Ostex International, Seattle, Wash.). Working strength concentrations were between 10 and 0.01 micrograms per milliliter.
To test the apparent affinity of the synthetic peptides for mAb 1H11, the OSTEOMARK assay was run using OSTEOMARK kits and components, including monoclonal antibody 1H11. A standard curve was run using OSTEOMARK calibrators. Peptide samples were generally tested at 10, 3, 1, and down to 0.01 μG per mL. The standard OSTEOMARK curve was generated using a four parameter logistic curve fit program (MedData Inc., N.Y., N.Y.). Peptide values were back fit into the standard curve and values were reported in picomoles Bone Collagen Equivalents (BCE)/mL (which equals nanomolar BCE, or nM BCE).
Values in the Table are reported as the number of nanomoles of BCE equivalent to a microgram of a given peptide. Antibody binding values below 500 nMole BCE were considered to be commercially insignificant.

[2] = tested on: mAb 1H11; conditions: linear peptides in which K is simply lysine; WO 91/08478; Hanson et al. 1992; cited from earlier work

Structure (SMILES) | Results: peptide binding to mAb 1H11, 1 μg synthetic peptide = X nmole BCE [1] [nmole BCE] | binding to mAb 1H11 (in words) [1] | recognition by mAb 1H11 (in words) [2]
CC(C)[C@H](NC(=O)CNC(=O)[C@H](CCC(=O)O)NC(=O)[C@H](C)NC(=O)[C@H](CC(=O)O)NC(=O)[C@H](Cc1ccc(O)cc1)NC(=O)[C@@H]1CCC(=O)N1)C(=O)NCC(=O)O [SEQ ID NO:27, J Y D A E G V G] ([pGlu]YDAEGVG-OH) | < 50 | substantially eliminates mAb 1H11 binding affinity | –
CC(C)[C@H](NC(=O)CNC(=O)[C@H](CC(=O)O)NC(=O)[C@H](Cc1ccc(O)cc1)NC(=O)[C@@H]1CCC(=O)N1)C(=O)NCC(=O)N[C@H](C(=O)NCC(=O)O)C(C)C [SEQ ID NO:18, J Y D G V G V G] ([pGlu]YDGVGVG-OH) | 400 | – | –
CCC[C@H](NC(=O)CNC(=O)[C@H](CC(=O)O)NC(=O)[C@H](Cc1ccc(O)cc1)NC(=O)[C@@H]1CCC(=O)N1)C(=O)NCC(=O)N[C@H](C(=O)NCC(=O)O)C(C)C [SEQ ID NO:38, J Y D G X^5 G V G] ([pGlu]YDG[Nva]GVG-OH) | 860 | – | –
CC(C)[C@H](NC(=O)CNC(=O)[C@H](CCCCN)NC(=O)CNC(=O)[C@H](CC(=O)O)NC(=O)[C@H](Cc1ccc(O)cc1)NC(=O)[C@@H]1CCC(=O)N1)C(=O)NCC(=O)O [SEQ ID NO:9, J Y D G K G V G] ([pGlu]YDGKGVG-OH) | 100 | very weak binding partner | recognized very weakly
CC(C)C[C@H](NC(=O)CNC(=O)[C@H](CC(=O)O)NC(=O)[C@H](Cc1ccc(O)cc1)NC(=O)[C@@H]1CCC(=O)N1)C(=O)NCC(=O)N[C@H](C(=O)NCC(=O)O)C(C)C [SEQ ID NO:10, J Y D G L G V G] ([pGlu]YDGLGVG-OH) | 230 | – | –

Second part, led by results:

Results: peptide binding to mAb 1H11, 1 μg synthetic peptide = X nmole BCE [1] [nmole BCE] | binding to mAb 1H11 (in words) [1] | Structure (SMILES) | recognition by mAb 1H11 (in words) [2]
483 | – | CC(C)[C@H](NC(=O)CNC(=O)[C@H](C)NC(=O)CNC(=O)[C@H](CC(=O)O)NC(=O)[C@H](Cc1ccc(O)cc1)NC(=O)[C@@H]1CCC(=O)N1)C(=O)NCC(=O)O [SEQ ID NO:1, J Y D G A G V G] ([pGlu]YDGAGVG-OH) | –
< 50 | loss of mAb 1H11 binding affinity | CC(C)[C@H](NC(=O)[C@H](C)NC(=O)[C@H](CCC(=O)O)NC(=O)CNC(=O)[C@H](CC(=O)O)NC(=O)[C@H](Cc1ccc(O)cc1)NC(=O)[C@@H]1CCC(=O)N1)C(=O)NCC(=O)O [SEQ ID NO:28, J Y D G E A V G] ([pGlu]YDGEAVG-OH) | –
